Source: patent US7910647B2, “Adhesion inhibition of microorganisms by non-ionic surfactants” (Henkel AG & Co. KGaA, priority 2003, dated 2011)

System: Aspergillus niger
Assay: Adhesion test with molds on silicone sealant DC3390 film
Details: 1 wt. % surfactant in silicone sealant DC3390; adhered Aspergillus niger spores (CFU) after 48 hours at 25° C.; sealant with no active substance = 100
Protocol: The silicone sealant DC3390 was used. 1 wt. % of surfactant was added and homogenized in the Speedmixer. The surfactants indicated in Table 1 were tested in comparison with the joint sealing compound without the addition of the surfactants being tested. The resulting composition was spread as the film (22×22×2 mm) and left to harden in air. The resulting test specimen was disinfected with 70% ethanol for 10 minutes, then washed with distilled water and dried. The test specimens were subsequently coated with a germ suspension of Aspergillus niger and incubated for one hour. The germ suspension was then siphoned off and the specimen was washed twice. The specimens were transferred into sterile tubes that contained 5 ml of inactivation solution and shaken on a shaker for 10 minutes at 400 rpm. To determine the number of adhered spores, firstly the specimens were placed in sterile 6-well plates and covered with wort agar with INT, secondly a determination of the colony count of the inactivation solution was carried out by the inoculation plate method. After 48 hours incubation at 25° C., the number of colony forming units (CFU) was subsequently determined.

CCO[Si](CCC(F)(F)C(F)(F)C(F)(F)C(F)(F)C(F)(F)C(F)(F)F)(OCC)OCC [DYNASYLAN F8261, perfluorinated octyltriethoxysilane]
Mold adhesion [%]: 80%
